Patent US20240050513A1, “COMPOSITION FOR PREVENTING, AMELIORATING, OR TREATING DISEASE CAUSED BY PROTEIN NITRATION […] WITH TERMINAL TYROSINE AS EFFECTIVE COMPONENT” (INDUSTRY-ACADEMIC COOPERATION FOUNDATION GYEONGSANG …, priority 2021, published 2024)

Assays:
[1] = tested on: kainic acid-treated ICR mice; assay: Seizure level in kainic acid epileptic seizure model; format: in vivo
Description: Four-week-old male ICR mice were fed with normal diet, tyrosine (L-Tyr), or tyrosine-containing peptide (3xYQ, 1xYW, or 3xYW) for one week. […] Kainic acid (KA) was dissolved in saline by heating in a water bath, resulting in a 4.5 mg/ml KA solution. The resulting KA solution was then intraperitoneally injected at a dose of 36 mg/kg, and seizure level and symptoms were recorded for 2 hours.

[2] = tested on: glutamine synthetase (GS); assay: GS activity and GS tyrosine nitration in PFC, chronic immobilization stress model; format: in vivo, C57BL/6 mice; settings: stress group
Description: Using the prefrontal cortex (PFC) lysate samples from mice obtained after the completion of chronic immobilization stress, GS activity and GS expression level were measured by following the method described above.
Furthermore, the level of tyrosine nitration within GS was measured by using immunoprecipitation (IP)-WB. The immunoprecipitation analysis of tyrosine-nitrated GS was performed using an anti-nitrotyrosine antibody (ab61392, Abcam) and Protein A/G PLUS-Agarose (Santa Cruz) according to the manufacturer's protocol.

[3] = tested on: chronic immobilization stress C57BL/6 mice; settings: stress group, peptide diet vs normal diet
Description: A total of 28 male C57BL/6 mice at 7 weeks of age were divided into two groups: a control group (CTL) and a stress group (STR). The stress group was subjected to chronic immobilization stress for 15 days. Specifically, each mouse in the stress group was individually placed in a restrainer for 2 hours daily from […] to induce chronic immobilization stress. The control group (CTL) and stress group (STR) were further classified based on their diets. […] After the completion of the 15-day chronic immobilization stress, the mice were subjected to a sucrose preference test (SPT). Blood samples and prefrontal cortex (PFC) tissues were collected from the mice for subsequent test.
For the analysis of anti-depressive effect, blood and PFC tissues were collected from mice that underwent chronic immobilization stress. The blood collected from mice was centrifuged at 1,000×g for 10 minutes at 4° C. to separate the plasma, and the supernatant was collected and diluted 1/20 with PBS to prepare a sample. The corticosterone concentration in the plasma was then measured using the Corticosterone EIA kit (Cayman) by following the manufacturer's instructions.
In addition, the plasma diluted with PBS at a ⅓ ratio and the PFC tissue lysate (50 μg) were prepared. The ROS/RNS (reactive oxygen species/reactive nitrogen species) level in the plasma and PFC tissues was measured using the ROS/RNS assay kit (Cell Biolabs) according to the manufacturer's instructions.
In addition, the depression was evaluated by measuring the sucrose preference of mice that had undergone 15 days of chronic immobilization stress. The sucrose preference test was conducted over a total of 4 days. Equal amounts of 0.1 M sucrose solution and water were provided in identical bottles of the same size and shape. On the first day, mice were given access to 0.1 M sucrose solution and water for 24 hours. On the second day, the positions of the sucrose solution and water bottles were switched, and mice were given access for 24 hours. On the third day, no sucrose solution or water was provided. On the fourth day, mice were again given access to equal amounts of 0.1 M sucrose solution and water for 3 hours, the positions were then switched, and access was provided for another 3 hours. The amount of sucrose solution and water consumed during the 6-hour period on the fourth day was measured, and the sucrose preference (%) was calculated according to the following formula.
Sucrose preference (%)=Sucrose intake amount/(Water intake amount+Sucrose intake amount)×100

[4] = tested on: chronic immobilization stress C57BL/6 mice; assay: Cognitive function (ORT/OLT) in chronic immobilization stress model; format: in vivo; settings: stress group, peptide-supplemented diet vs normal diet
Description: To analyze the long-term memory capacity of animals following the peptide diet of the present invention, both the object recognition test (ORT) and object location recognition test (OLT) were conducted (FIG. 1). The tests consisted of three phases: habituation, familiarization, and test. During the habituation phase, the animals were acclimated to the testing apparatus for 10 minutes per day over two days. On the third day at the familiarization phase, the animals were allowed to explore two identical objects for 10 minutes. Subsequently, on the fourth day at the test phase, one of the objects was replaced with a novel object, and the animals were allowed to explore for 10 minutes, with result recorded during the initial 5 minutes was used as test data. The object recognition test (ORT) index was calculated using the following formula.
Discrimination index=(N−F)/(N+F) • N: Time spent for exploring new object • F: Time spent for exploring familiar object
After 24 hours of performing the ORT, the location of the familiar object was changed, and the animals were allowed to explore for 5 minutes. During the total exploration time, the ratio of time spent exploring the object with a changed location was calculated to determine the object location recognition test (OLT) index.
A total of 28 seven-week-old male C57BL/6 mice were divided into two groups: a control group and a stress group. […]

[5] = tested on: glutamine synthetase (GS); assay: Hippocampal glutamine synthetase activity in kainic acid epileptic seizure model; settings: survived mice after kainic acid
Description: Kainic acid (KA) was dissolved in saline by heating in a water bath, resulting in a 4.5 mg/ml KA solution. The resulting KA solution was then intraperitoneally injected at a dose of 36 mg/kg, and seizure level and symptoms were recorded for 2 hours. The brain tissues (prefrontal cortex and hippocampus) of the mice that survived 16 hours or 5 days after the KA injection were collected.
To a 96-well plate, 2 μl of hippocampal homogenate was added, and 50 μl of 50 mM imidazole-HCl buffer (pH 6.8) were added to adjust the volume to 50 μl. Then, 50 μl of GS assay buffer (50 mM imidazole-HCl, pH 6.8, 25 mM L-glutamine, 12.5 mM hydroxylamine, 12.5 mM sodium arsenate, 1 mM MnCl2, and 0.08 mM ADP) were added and the reaction was allowed to occur at 37° C. for approximately 40 minutes. […] To terminate the reaction, 100 μl of stop solution (90 mM FeCl3, 1.8 N HCl, and 1.45% w/v trichloroacetic acid) were added to both the samples and the standard substance, and the absorbance was measured at 560 nm. The GS activity in each sample was determined by comparing it with the standard curve. GS activity was expressed as the generation amount of γ-glutamylhydroxamate, which is produced as a final product, and described in unit of μM/min/μg protein.

Compound: N[C@@H](Cc1ccc(O)cc1)C(=O)O [L-Tyr, L-tyrosine, reference compound]
- seizure level ([1]; 5xL-Tyr diet vs normal diet): statistically significantly decreased

Compound: glutamine-tyrosine [QY]
- tyrosine nitration level of GS ([2]; IP-WB, peptide diet vs normal diet): statistically significant decrease
- GS activity ([2]; peptide diet (330 mg/kg) vs normal diet): statistically significant increase
- ROS/RNS level in PFC tissue [3]: decreased
- sucrose preference [3]: increased

Compound: tyrosine-tryptophan [YW]
- cognitive function [4]: enhanced cognitive function
- activity of the glutamine synthetase in the hippocampal tissue ([5]; 1xYW): increased
- activity of the glutamine synthetase in the hippocampal tissue ([5]; 3xYW): increased
- seizure level ([1]; 1xYW diet one week vs normal diet): statistically significantly decreased
